Assay results taken from patent US20090298825A1, “Bicycloheteroaryl Compounds as P2x7 Modulators and Uses Thereof” (priority 2006, published 2009).

biological target: T1, P2X7 receptor (Homo sapiens, UniProt Q99572); assay: IL-1β release assay in differentiated THP-1 cells stimulated with BzATP (Example 9); assay type: cell-based; details: 0.1 μM concentration, read-out: IL-1β % Inhib. @ 0.3 or 0.1 μM
T1 construct: endogenous in cells; host or cells: THP-1 cells differentiated with LPS and IFN-γ
T1 sequence (Q99572 1-595): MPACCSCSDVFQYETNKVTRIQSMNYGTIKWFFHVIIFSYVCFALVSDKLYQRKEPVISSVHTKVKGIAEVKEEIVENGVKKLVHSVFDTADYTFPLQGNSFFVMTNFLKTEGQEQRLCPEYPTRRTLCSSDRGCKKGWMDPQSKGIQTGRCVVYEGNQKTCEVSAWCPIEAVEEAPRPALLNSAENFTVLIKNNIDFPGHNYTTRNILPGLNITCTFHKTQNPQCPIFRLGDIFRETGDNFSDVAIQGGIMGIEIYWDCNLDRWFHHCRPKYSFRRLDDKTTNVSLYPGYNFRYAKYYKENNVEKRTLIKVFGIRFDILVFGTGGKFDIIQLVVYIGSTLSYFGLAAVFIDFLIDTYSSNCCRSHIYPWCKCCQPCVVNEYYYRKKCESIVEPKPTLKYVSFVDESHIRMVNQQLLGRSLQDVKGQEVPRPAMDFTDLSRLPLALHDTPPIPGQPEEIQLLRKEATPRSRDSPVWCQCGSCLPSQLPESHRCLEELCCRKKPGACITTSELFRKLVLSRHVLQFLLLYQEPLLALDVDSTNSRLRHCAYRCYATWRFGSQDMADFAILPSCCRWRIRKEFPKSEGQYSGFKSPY
Experimental: The cells are then pretreated for 30 minutes with the compound of interest at the appropriate concentration in RPMI media containing 100 IU/mL penicillin, 100 ug/mL streptomycin. […] 30 uL of cell supernatant is then collected and IL-1β levels determined via ELISA (R&D systems Cat. # HSLB50) according to manufacturer's recommendations using the Tecan Safire plate reader. Background adjusted IL-1β levels of drug treated and non-treated cells are used to calculate the percent inhibition.
The compounds set forth in Table 1 were tested for activity in a cellular model as described herein. […] Measurements were made and IC50 values, presented in Table 2, below, were determined by fitting the data to a four parameter logistic equation using GraphPad Prism software (GraphPad Software, Inc). The equation may be expressed by the following formula:
Y=Bottom+(Top-Bottom)/(1+10̂((Log EC50−X)*HillSlope))
Where X is the logarithm of concentration, Y is the response and Y starts at Bottom and goes to Top with a sigmoid shape.

Row | SMILES | inhibition at 0.1 µM [%]
1 | CCOC(=O)N1CCC(n2ccc3c(NC(=O)c4cccc(OCC)c4)cccc3c2=O)CC1 [ID 757] | 0 to 25
2 | CCOC(=O)N1CCC(n2ccc3c(NC(=O)CCc4ccccc4Cl)cccc3c2=O)CC1 [ID 758] | 0 to 25
3 | CCOC(=O)N1CCC(n2ccc3c(NC(=O)CCc4ccc5c(c4)OCO5)cccc3c2=O)CC1 [ID 759] | 0 to 25
4 | CCOC(=O)N1CCC(n2ccc3c(NC(=O)c4ccc(Cl)c(C)c4)cccc3c2=O)CC1 [ID 760] | 0 to 25
5 | CCOC(=O)N1CCC(n2ccc3c(NC(=O)c4ccccc4Cl)cccc3c2=O)CC1 [ID 761] | 0 to 25
6 | CCOC(=O)N1CCC(n2ccc3c(NC(=O)c4ccc(Cl)cc4Cl)cccc3c2=O)CC1 [ID 762] | 0 to 25
7 | CCOC(=O)N1CCC(n2ccc3c(NC(=O)c4cc(Cl)ccc4Cl)cccc3c2=O)CC1 [ID 763] | 0 to 25
8 | CCOC(=O)N1CCC(n2ccc3c(NC(=O)c4ccccc4C)cccc3c2=O)CC1 [ID 764] | 0 to 25
9 | CCOC(=O)N1CCC(n2ccc3c(NC(=O)c4cccc(C)c4C)cccc3c2=O)CC1 [ID 765] | 0 to 25
10 | CCOC(=O)N1CCC(n2ccc3c(NC(=O)c4ccc(C)cc4C)cccc3c2=O)CC1 [ID 766] | 0 to 25
11 | CCOC(=O)N1CCC(n2ccc3c(NC(=O)c4cc(C)ccc4C)cccc3c2=O)CC1 [ID 767] | 0 to 25
12 | CCOC(=O)N1CCC(n2ccc3c(NC(=O)c4cc(Cl)cc(Cl)c4)cccc3c2=O)CC1 [ID 768] | 0 to 25
13 | CCOC(=O)N1CCC(n2ccc3c(NC(=O)c4cc(OC)cc(OC)c4)cccc3c2=O)CC1 [ID 769] | 26 to 50
14 | CCOC(=O)N1CCC(n2ccc3c(NC(=O)c4cccc(C)c4)cccc3c2=O)CC1 [ID 770] | 0 to 25
15 | CCOC(=O)N1CCC(n2ccc3c(NC(=O)c4ccc(OCC)cc4)cccc3c2=O)CC1 [ID 771] | 0 to 25
16 | CCOC(=O)N1CCC(n2ccc3c(NC(=O)c4ccc(-c5ccccc5)cc4)cccc3c2=O)CC1 [ID 772] | 0 to 25
17 | CCOC(=O)N1CCC(n2ccc3c(NC(=O)c4ccc(C(C)(C)C)cc4)cccc3c2=O)CC1 [ID 773] | 26 to 50
18 | CCOC(=O)N1CCC(n2ccc3c(NC(=O)C(C)c4ccccc4)cccc3c2=O)CC1 (stereo not drawn) [ID 774] | 0 to 25
19 | CCOC(=O)N1CCC(n2ccc3c(NC(=O)CCc4ccccc4OC)cccc3c2=O)CC1 [ID 775] | 0 to 25
20 | CCOC(=O)N1CCC(n2ccc3c(NC(=O)CCc4ccc(OC)cc4)cccc3c2=O)CC1 [ID 776] | 0 to 25
21 | CCOC(=O)N1CCC(n2ccc3c(NC(=O)Cc4ccccc4F)cccc3c2=O)CC1 [ID 777] | 0 to 25
22 | CCOC(=O)N1CCC(n2ccc3c(NC(=O)Cc4ccccc4Cl)cccc3c2=O)CC1 [ID 778] | 0 to 25
23 | CCOC(=O)N1CCC(n2ccc3c(NC(=O)Cc4ccccc4OC)cccc3c2=O)CC1 [ID 779] | 0 to 25
24 | CCOC(=O)N1CCC(n2ccc3c(NC(=O)Cc4cc(OC)ccc4OC)cccc3c2=O)CC1 [ID 780] | 0 to 25
25 | CCOC(=O)N1CCC(n2ccc3c(NC(=O)Cc4ccccc4C)cccc3c2=O)CC1 [ID 781] | 0 to 25
26 | CCOC(=O)N1CCC(n2ccc3c(NC(=O)Cc4cccc(OC)c4)cccc3c2=O)CC1 [ID 782] | 0 to 25
27 | CCOC(=O)N1CCC(n2ccc3c(NC(=O)Cc4ccc(OC)c(OC)c4)cccc3c2=O)CC1 [ID 783] | 0 to 25
28 | CCOC(=O)N1CCC(n2ccc3c(NC(=O)Cc4cccc(C)c4)cccc3c2=O)CC1 [ID 784] | 0 to 25

Row | SMILES | inhibition at 0.1 µM [%]
29 | CCOC(=O)N1CCC(n2ccc3c(NC(=O)Cc4ccc(OC)cc4)cccc3c2=O)CC1 [ID 785] | 0 to 25
30 | CCOC(=O)N1CCC(n2ccc3c(NC(=O)Cc4ccc(OCC)cc4)cccc3c2=O)CC1 [ID 786] | 0 to 25
31 | CCOC(=O)N1CCC(n2ccc3c(NC(=O)Cc4ccc(C)cc4)cccc3c2=O)CC1 [ID 787] | 0 to 25
32 | CCOC(=O)N1CCC(n2ccc3c(NC(=O)CCCc4ccccc4)cccc3c2=O)CC1 [ID 788] | 0 to 25
33 | CCOC(=O)N1CCC(n2ccc3c(NC(=O)c4cc5ccccc5o4)cccc3c2=O)CC1 [ID 789] | 0 to 25
34 | CCOC(=O)N1CCC(n2ccc3c(NC(=O)Cc4ccc5c(c4)OCO5)cccc3c2=O)CC1 [ID 790] | 0 to 25
35 | CCOC(=O)N1CCC(n2ccc3c(NC(=O)Cc4cc(OC)cc(OC)c4)cccc3c2=O)CC1 [ID 791] | 0 to 25
36 | CCOC(=O)N1CCC(n2ccc3c(NC(=O)c4cc(C)c(OC)c(C)c4)cccc3c2=O)CC1 [ID 792] | 0 to 25
37 | CCOC(=O)N1CCC(n2ccc3c(NC(=O)c4ccc(C)c(Cl)c4)cccc3c2=O)CC1 [ID 793] | 0 to 25
38 | CCOC(=O)N1CCC(n2ccc3c(NC(=O)c4ccc(Cl)cc4C)cccc3c2=O)CC1 [ID 794] | 0 to 25
39 | CCOC(=O)N1CCC(n2ccc3c(NC(=O)CC4C[C@@H]5CC[C@H]4C5)cccc3c2=O)CC1 (stereo partly drawn) [ID 795] | 0 to 25
40 | CCOC(=O)N1CCC(n2ccc3c(NC(=O)C45CC6C[C@H](C4)C[C@@](O)(C6)C5)cccc3c2=O)CC1 [ID 796] | 0 to 25
41 | CCOC(=O)N1CCC(n2ccc3c(NC(=O)[C@@]45C[C@@H]6C[C@@H](C[C@@H]4C6)C5)cccc3c2=O)CC1 [ID 797] | 0 to 25
42 | CCOC(=O)N1CCC(n2ccc3c(NC(=O)c4cccc5c4OCCO5)cccc3c2=O)CC1 [ID 798] | 0 to 25
43 | CCOC(=O)N1CCC(n2ccc3c(NC(=O)c4ccc5c(c4)OCCCO5)cccc3c2=O)CC1 [ID 799] | 0 to 25
44 | CCOC(=O)N1CCC(n2ccc3c(NC(=O)c4cccc(Cl)c4C)cccc3c2=O)CC1 [ID 801] | 0 to 25
45 | CCOC(=O)N1CCC(n2ccc3c(NC(=O)Cc4cc(C)cc(C)c4)cccc3c2=O)CC1 [ID 802] | 0 to 25
46 | CCOC(=O)N1CCC(n2ccc3c(NC(=O)C4C[C@@H]5CC[C@H]4C5)cccc3c2=O)CC1 (stereo partly drawn) [ID 803] | 0 to 25
47 | CCOC(=O)N1CCC(n2ccc3c(NC(=O)Cc4ccc(OC)cc4OC)cccc3c2=O)CC1 [ID 804] | 0 to 25
48 | CCOC(=O)N1CCC(n2ccc3c(NC(=O)Cc4ccccc4OCC)cccc3c2=O)CC1 [ID 805] | 0 to 25
49 | CCOC(=O)N1CCC(n2ccc3c(NC(=O)Cc4ccc(OC)c(C)c4)cccc3c2=O)CC1 [ID 806] | 0 to 25
50 | CCOC(=O)N1CCC(n2ccc3c(NC(=O)CCc4cccc(C)c4)cccc3c2=O)CC1 [ID 807] | 0 to 25
51 | CCOC(=O)N1CCC(n2ccc3c(NC(=O)c4cccc(C)c4Cl)cccc3c2=O)CC1 [ID 808] | 0 to 25
52 | CCOC(=O)N1CCC(n2ccc3c(NC(=O)c4ccc(OC)c(C)c4)cccc3c2=O)CC1 [ID 809] | 0 to 25
53 | CCOC(=O)N1CCC(n2ccc3c(NC(=O)CCc4ccc(C)cc4C)cccc3c2=O)CC1 [ID 810] | 0 to 25
54 | CCOC(=O)N1CCC(n2ccc3c(NC(=O)CCc4cccc(Cl)c4)cccc3c2=O)CC1 [ID 811] | 0 to 25
55 | CCOC(=O)N1CCC(n2ccc3c(NC(=O)c4ccc(CC(C)C)cc4)cccc3c2=O)CC1 [ID 812] | 0 to 25

same assay, conditions: 0.3 μM concentration, read-out: IL-1β % Inhib. @ 0.3 or 0.1 μM

Row | SMILES | inhibition at 0.3 µM [%]
56 | O=C(CC1(O)CCCCCC1)Nc1cccc2c(=O)n(C3CCNCC3)ccc12 [ID 813] | 0 to 25

same assay, conditions: four parameter logistic fit, read-out: IL-1β IC50

Row | SMILES | IC50 [nM]
57 | O=C(CC1(O)CCCCCC1)Nc1cccc2c(=O)n(C3CCNCC3)ccc12 [ID 813] | 760
